The text below walks through data of patent US9890117B2, “Benzamide compounds and related methods of use” (Northwestern University, priority 2012, dated 2018).

This experiment addresses T1, SIRT2 (Homo sapiens, UniProt Q8IXJ6).
T1 construct: recombinant active enzymes SIRT1, SIRT2, and the catalytically active fragment of SIRT3
T1 sequence (Q8IXJ6 1-389): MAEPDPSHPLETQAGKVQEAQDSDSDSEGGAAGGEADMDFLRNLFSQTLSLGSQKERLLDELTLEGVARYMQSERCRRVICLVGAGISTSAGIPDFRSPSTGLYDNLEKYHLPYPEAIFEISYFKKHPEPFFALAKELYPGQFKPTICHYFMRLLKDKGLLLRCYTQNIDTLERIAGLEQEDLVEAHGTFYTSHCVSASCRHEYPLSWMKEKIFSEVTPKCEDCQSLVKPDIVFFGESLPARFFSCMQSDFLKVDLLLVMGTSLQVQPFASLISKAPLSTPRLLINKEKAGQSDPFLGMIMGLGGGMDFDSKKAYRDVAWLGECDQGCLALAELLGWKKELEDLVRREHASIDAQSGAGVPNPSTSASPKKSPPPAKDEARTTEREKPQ
Kind of experiment: Fluor-de-Lys biochemical sirtuin deacetylation assay, SIRT2. The following applies: 10 μM.

Each structure is given as a SMILES string. Structures can show the parent of a compound that is named as a salt.

Regarding `CC(Oc1cccc(C(=O)Nc2ccc(C#N)cc2)c1)c1ccc(C2(C)COC2)cc1` (stereo not drawn) [Compound 216Aj, N-(4-cyanophenyl)-3-(1-(4-(3-methyloxetan-3-yl)phenyl)ethoxy)benzamide], 10 µM produced 43% inhibition.

On to `CC(=O)c1ccc([C@@H](C)Oc2cccc(C(=O)Nc3ccc(C#N)cc3)c2)cc1` [Compound 216Ak, (R)-3-(1-(4-acetylphenyl)ethoxy)-N-(4-cyanophenyl)benzamide], for which at 10 µM the inhibition was 98%.

Consider `CC(=O)c1ccc([C@H](C)Oc2cccc(C(=O)Nc3ccc(C#N)cc3)c2)cc1` [Compound 216Al, (S)-3-(1-(4-acetylphenyl)ethoxy)-N-(4-cyanophenyl)benzamide], for which the inhibition (commonly the change of the read-out against control, counted positive when it falls) at 10 µM worked out at 60%.

On to `CC(O)c1ccc([C@@H](C)Oc2cccc(C(=O)Nc3ccc(C#N)cc3)c2)cc1` (stereo partly drawn) [Compound 216Am, N-(4-cyanophenyl)-3-((1R)-1-(4-(1-hydroxyethyl)phenyl)ethoxy)benzamide], for which the inhibition at 10 µM was determined as 21%.

`CC(=O)c1ccc([C@@H](C)Oc2cncc(C(=O)Nc3ccc(C#N)cc3)c2)cc1` [Compound 216An, (R)-5-(1-(4-acetylphenyl)ethoxy)-N-(4-cyanophenyl)nicotinamide] came in with an inhibition at 10 µM of 95%.

Regarding `CCC(CC)Oc1cccc(C(=O)Nc2ccc(C#N)cc2)c1` [Compound 216Ao, N-(4-cyanophenyl)-3-(pentan-3-yloxy)benzamide], the inhibition at 10 µM worked out at 37%.

In turn, `CC(=O)c1ccc(C(Oc2cccc(C(=O)Nc3ccc(C#N)cc3)c2)C(C)C)cc1` (stereo not drawn) [Compound 216Ap, 3-(1-(4-acetylphenyl)-2-methylpropoxy)-N-(4-cyanophenyl)benzamide] displayed an inhibition at 10 µM of 44%.

On to `CC(O)c1ccc([C@@H](C)Oc2cncc(C(=O)Nc3ccc(C#N)cc3)c2)cc1` (stereo partly drawn) [Compound 216Aq, N-(4-cyanophenyl)-5-((1R)-1-(4-(1-hydroxyethyl)phenyl)ethoxy)nicotinamide], for which the inhibition at 10 µM came to 0%.

In the case of `CC(=O)c1ccc(COc2cccc(C(=O)Nc3ccc(C#N)cc3)c2)cc1` [Compound 216Ar, 3-((4-acetylbenzyl)oxy)-N-(4-cyanophenyl)benzamide], the inhibition at 10 µM was 27%.

The molecule `CC(=O)c1ccc(NC(=O)c2cccc(O[C@H](C)c3ccc(C(C)=O)cc3)c2)cc1` [Compound 216As, (R)—N-(4-acetylphenyl)-3-(1-(4-acetylphenyl)ethoxy)benzamide] yielded an inhibition at 10 µM of 97%.

On to `CC(=O)c1ccc(C(C)(C)Oc2cccc(C(=O)Nc3ccc(Br)cc3)c2)cc1` [Compound 216At, 3-((2-(4-acetylphenyl)propan-2-yl)oxy)-N-(4-bromophenyl)benzamide], for which at 10 µM the inhibition was 34%.

For `CC(=O)c1ccc(C(C)(C)Oc2cccc(C(=O)Nc3ccc(C(F)(F)F)cc3)c2)cc1` [Compound 216Au, 3-((2-(4-acetylphenyl)propan-2-yl)oxy)-N-(4-(trifluoromethyl)phenyl)benzamide], at 10 µM the inhibition was 27%.

`CC(=O)c1ccc(C(C)Oc2cccc(C(=O)Nc3ccc(Cl)cc3)c2)cc1` (stereo not drawn) [Compound 216Av, 3-(1-(4-acetylphenyl)ethoxy)-N-(4-chlorophenyl)benzamide] showed an inhibition at 10 µM of 89%.

`CC(=O)c1ccc(C(C)Oc2cccc(C(=O)Nc3ccc(F)cc3)c2)cc1` (stereo not drawn) [Compound 216Aw, 3-(1-(4-acetylphenyl)ethoxy)-N-(4-fluorophenyl)benzamide] came in with an inhibition at 10 µM of 62%.

In the case of `COc1ccc(NC(=O)c2cccc(OC(C)c3ccc(C(C)=O)cc3)c2)cc1` (stereo not drawn) [Compound 216Ax, 3-(1-(4-acetylphenyl)ethoxy)-N-(4-methoxyphenyl)benzamide], the inhibition at 10 µM stood at 56%.

Take `CC(=O)c1ccc(NC(=O)c2cccc(OC(C)c3ccc(C(C)=O)cc3)c2)cc1` (stereo not drawn) [Compound 216Ay, N-(4-acetylphenyl)-3-(1-(4-acetylphenyl)ethoxy)benzamide]: the inhibition at 10 µM amounted to 94%.

`CC(=O)c1ccc(C(C)Oc2cccc(C(=O)Nc3ccc(CC#N)cc3)c2)cc1` (stereo not drawn) [Compound 216Az, 3-(1-(4-acetylphenyl)ethoxy)-N-(4-(cyanomethyl)phenyl)benzamide] came in with an inhibition at 10 µM of 58%.

With `CC(=O)c1ccc(C(C)Oc2cccc(C(=O)Nc3ccc(Br)cc3)c2)cc1` (stereo not drawn) [Compound 216Ba, 3-(1-(4-acetylphenyl)ethoxy)-N-(4-bromophenyl)benzamide], the inhibition at 10 µM amounted to 85%.

`CC(=O)c1ccc(C(C)Oc2cccc(C(=O)Nc3ccc(S(C)(=O)=O)cc3)c2)cc1` (stereo not drawn) [Compound 216Bb, 3-(1-(4-acetylphenyl)ethoxy)-N-(4-(methylsulfonyl)phenyl)benzamide]: testing at 10 µM gave an inhibition of 70%.

In the case of `CC(=O)c1ccc(C(C)Oc2cccc(C(=O)Nc3ccc(C(F)(F)F)cc3)c2)cc1` (stereo not drawn) [Compound 216Bc, 3-(1-(4-acetylphenyl)ethoxy)-N-(4-(trifluoromethyl)phenyl)benzamide], the inhibition at 10 µM came out at 77%.

In turn, `C[C@@H](Oc1cccc(C(=O)Nc2ccc(C#N)cc2)c1)c1ccc(F)cc1` [Compound 216l, (R)—N-(4-cyanophenyl)-3-(1-(4-fluorophenyl)ethoxy)benzamide] yielded an inhibition at 10 µM of 88%.

`C[C@H](Oc1cccc(C(=O)Nc2ccc(C#N)cc2)c1)c1ccc(F)cc1` [Compound 216o, (S)—N-(4-cyanophenyl)-3-(1-(4-fluorophenyl)ethoxy)benzamide] returned an inhibition at 10 µM of 54%.

As for `CC(C)(Oc1cccc(C(=O)Nc2ccc(C#N)cc2)c1)c1ccc(F)cc1` [Compound 216p, N-(4-cyanophenyl)-3-((2-(4-fluorophenyl)propan-2-yl)oxy)benzamide], testing at 10 µM gave an inhibition of 55%.

`C=CCOc1cc(OCc2ccc(C#N)cc2)cc(C(=O)Nc2ccc(C#N)cc2)c1` [Compound 216v, 3-(allyloxy)-5-((4-cyanobenzyl)oxy)-N-(4-cyanophenyl)benzamide] returned an inhibition at 10 µM of 11%.

For `N#Cc1ccc(COc2cc(OC[C@@H](O)CO)cc(C(=O)Nc3ccc(C#N)cc3)c2)cc1` [Compound 216x, (S)-3-((4-cyanobenzyl)oxy)-N-(4-cyanophenyl)-5-(2,3-dihydroxypropoxy)benzamide], the inhibition at 10 µM was 25%.

Regarding `CCN(CC)CCOc1cc(OCc2ccc(C#N)cc2)cc(C(=O)Nc2ccc(C#N)cc2)c1` [Compound 216y, 3-((4-cyanobenzyl)oxy)-N-(4-cyanophenyl)-5-(2-(diethylamino)ethoxy)benzamide], the inhibition at 10 µM was found to be 19%.

`N#Cc1ccc(NC(=O)c2cccc(NCc3ccc(F)cc3)c2)nc1` [Compound 221b, N-(5-cyanopyridin-2-yl)-3-((4-fluorobenzyl)amino)benzamide] came in with an inhibition at 10 µM of 28%.

In the case of `CN(Cc1ccc(C#N)cc1)Cc1cccc(C(=O)Nc2ccc(C#N)cc2)c1` [Compound 225a, 3-(((4-cyanobenzyl)(methyl)amino)methyl)-N-(4-cyanophenyl)benzamide], the inhibition at 10 µM came to 63%.

`N#Cc1ccc(NC(=O)c2cccc(CN(Cc3ccc(F)c(F)c3)C3CC3)c2)cc1` [Compound 225d, N-(4-cyanophenyl)-3-((cyclopropyl(3,4-difluorobenzyl)amino)methyl)benzamide hydrochloride] displayed an inhibition at 10 µM of 55%.

For the molecule `N#Cc1ccc(NC(=O)c2cccc(CN(Cc3ccc(C(F)(F)F)cc3)C3CC3)c2)cc1` [Compound 225e, N-(4-cyanophenyl)-3-((cyclopropyl(4-(trifluoromethyl)benzyl)amino)methyl)-benzamide hydrochloride], 10 µM produced 49% inhibition.
